The text below walks through data of article PMC7600264, “Quasi-Irreversible Inhibition of CYP2D6 by Berberine” (Pharmaceutics, 2020).

Each structure is given as a SMILES string. Like-named read-outs stand apart in the source and are kept apart here.

Data set [1] is classed as in vitro ADME, human. Particulars: precursor 1 µM in pooled HLM with NADPH-generating system, mean ± SD. The protocol: Table 3. Putative M1 metabolite produced in pooled HLM incubated with thalifendine or
Precursor molecules Incubation time (min)a M1 signal at m/z 310 (103 × cps)b
Demethyleneberberine 0 107 ± 3
a Thalifendine or demethyleneberberine (1 μM) was incubated with pooled HLM in the presence of
NADPH-generating system; b Each value represents the mean ± SD for three separate samples. […]

The test system of data set [2] is microsomal metabolism of nebivolol. Put plainly: BBR-nebivolol interaction in pooled HLM. It counts as in vitro ADME, human. The following applies: nebivolol 1 µM; pooled HLM 1 mg/mL; BBR 0, 1, 3, 10 µM; 60 min. The protocol:
The HDI between BBR and nebivolol was assessed using pooled HLM, where nebivolol (1 μM) was incubated with HLM (1 mg/mL) and NADPH-generating system (see Section 2.6) in phosphate buffer (0.1 M; pH 7.4) with BBR at various concentrations (0, 1, 3, and 10 μM). The mixture (total volume of 200 µL) was incubated at 37 °C for 60 min in a shaking water bath (100 rpm), following a 5 min of pre-incubation at 37 °C. […] The mass transitions of nebivolol and CBZ were m/z 406 to 151 and m/z 237 to 194, respectively.

In data set [3] the target is T1, CYP2D6 (Homo sapiens, UniProt P10635). Put plainly: in vitro. The following applies: pH 7.4.
T1 sequence (P10635 whole entry): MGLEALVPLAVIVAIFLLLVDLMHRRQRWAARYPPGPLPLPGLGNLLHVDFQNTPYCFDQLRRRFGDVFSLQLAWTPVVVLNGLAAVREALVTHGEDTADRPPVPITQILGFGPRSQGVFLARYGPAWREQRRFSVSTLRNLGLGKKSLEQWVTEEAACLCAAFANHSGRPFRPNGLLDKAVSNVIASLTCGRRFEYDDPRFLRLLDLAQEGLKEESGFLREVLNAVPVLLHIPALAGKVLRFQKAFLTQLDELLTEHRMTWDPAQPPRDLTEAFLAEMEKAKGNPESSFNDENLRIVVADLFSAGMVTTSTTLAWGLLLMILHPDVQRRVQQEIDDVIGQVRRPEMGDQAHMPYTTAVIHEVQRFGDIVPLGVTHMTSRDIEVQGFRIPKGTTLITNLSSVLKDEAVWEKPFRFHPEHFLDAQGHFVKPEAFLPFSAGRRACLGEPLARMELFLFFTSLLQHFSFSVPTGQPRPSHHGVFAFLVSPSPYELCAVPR
Procedure: (§1) Pre-incubation was performed in pooled HLM (0.2 mg/mL) added with BBR, THB, TFD, or DMB, or rhCYP2D6 (10 pmol/mL) added with BBR, with or without NADPH (1 mM) in phosphate buffer (0.1 M; pH 7.4) for 30 min. Then, the CYP2D6 substrate (5 µM of dextromethorphan) and NADPH (1 mM) were added to the mixture and incubated for another 10 min. All incubations were carried out at 37 °C in a shaking water bath (100 rpm) using eight-well tube strips placed in an 8 × 12 rack, where the final volume of each reaction mixture was 200 µL. […] The enzyme reactions were quenched by adding an aliquot (200 µL) of ice-cold ACN containing CBZ (100 nM) as an IS. The samples were centrifuged, and the concentration of CYP2D6 metabolite (i.e., dextrorphan, produced by O-demethylation of dextromethorphan) in supernatants were analyzed using the LC-MS/MS method described in Section 2.2.
Data set [4] has as its target T1, CYP2D6. The following applies: microsomes.
Procedure: (§2) BBR (0–16 μM) was incubated with pooled HLM (0.2 mg/mL), NADPH (1 mM), and dextromethorphan (5 µM) in phosphate buffer (0.1 M; pH 7.4) for various incubation time periods (0–30 min). The apparent inactivation rate constants (kobs) at various BBR concentrations were estimated by fitting first-order kinetics to the relative enzyme activity vs. incubation time profiles. The rate of enzyme inactivation (kinact) and the inhibition constant (KI) were determined by fitting the following Equation (1) to the kobs values at various inhibitor concentrations Equation (1) [31]:(1) 1/kobs=KI/kinact×1/I+1/kinact
On the set-up of data set [5]: method as in PMID 19589224, PMID 12562448, PMID 27283523. The following applies: clinical PK studies; single administration of BBR; highly variable; cited from earlier work.
The target of data set [6] is T1, CYP2D6. Kind of data set: Kinetic parameters for MDI of CYP2D6 in pooled HLM.
Procedure: as §2
Data set [7] concerns the target recombinant human CYP2D6 (rhCYP2D6) (Homo sapiens, UniProt P10635). Kind of data set: Metabolism-dependent CYP2D6 inhibition assay (IC50 shift) using rhCYP2D6.
Procedure: as §1
The target in data set [8] is T1, CYP2D6. The following applies: microsomes. This is another data set of the same source.
Procedure: The pre-incubation mixtures consisting of potassium phosphate buffer (0.1 M; pH 7.4), HLM (1 mg/mL), NADPH (1 mM), and inhibitor (total volumes of 180 µL per well) were incubated at 37 °C for 30 min. To verify the reversibility of quasi-irreversible inhibition, potassium ferricyanide (2 mM) was co-incubated with the mixture for 10 min at 37 °C, from which microsomes were re-isolated by ultracentrifugation at 100,000 g for 60 min at 4 °C. The resulting microsomal pellet was washed twice with potassium phosphate buffer (0.1 M; pH 7.4). The obtained microsomes (adjusted to 0.2 mg/mL) were incubated with CYP substrates (25 µM of dextromethorphan for CYP2D6 and 25 µM of MDZ for CYP3A4) and NADPH (1 mM) in potassium phosphate buffer (0.1 M; pH 7.4) for 5 min to measure the CYP activity. The reactions were terminated by the addition of ACN (200 µL) containing CBZ (100 nM).

recombinant human CYP2D6 (rhCYP2D6), sequence (P10635 whole entry): as above

As for `COc1ccc2cc3[n+](cc2c1OC)CCc1cc(O)c(O)cc1-3` [DMB, demethyleneberberine], the results for the “M1 signal at m/z 310” value in data set [1] (incubation time 0 min) and in data set [1] (incubation time 30 min) were 107 ± 3 103 × cps and 432 ± 27 103 × cps, respectively.

As for `COc1ccc2cc3[n+](cc2c1OC)CCc1cc2c(cc1-3)OCO2` [BBR, berberine], the “Effect on microsomal clearance of nebivolol” value in data set [2] was “significantly inhibited”. Moreover, the IC50 shift at 10 min on CYP2D6 [3] is approximately 7.5. Further, the “kinact/KI against CYP2D6” value at CYP2D6 [4] amounted to 97.2 M⁻¹ s⁻¹. The Maximum plasma concentration result in data set [5] is listed as “less than 1 nM to more than 1 µM”. The Ki (commonly a measure of affinity in units of concentration, obtained from inhibition or displacement) at CYP2D6 [6] amounted to 4.29 µM. The kinact – broadly, the maximal first-order rate at which the target is inactivated – on CYP2D6 [6] (human, pooled human liver microsomes, pH 7.4, probe dextromethorphan (5 µM)) was 0.000417 s⁻¹. For the same compound, the IC50 – broadly, the concentration needed to halve the response being measured – turned out to be 1.73 µM in data set [7] (IC50 against rhCYP2D6, pre-incubation with NADPH, 30 min pre-incubation with NADPH) and 5.31 µM in data set [7] (IC50 against rhCYP2D6, pre-incubation without NADPH, 30 min pre-incubation in the absence of NADPH). Moreover, the “Mode of CYP2D6 inhibition” value at CYP2D6 [8] is reported as “quasi-irreversible”.
